Experimental data as given in patent US20140309184A1, “METHODS AND COMPOSITIONS FOR THE TREATMENT OF OVARIAN CANCER” (UNIVERSITY OF SOUTH ALABAMA, priority 2011, published 2014).

What was measured:
A2780 xenografts = experiment: Xenograft tumor growth, carboplatin-sensitive model; type: in vivo; settings: SCID mice; BMS-833923 100 mg/kg i.p. daily, Carboplatin 40 mg/kg i.p. twice a week, two weeks
Description: (§1) Female SCID mice 6-8 weeks old were inoculated i.p. with 5×10^6 A2780 or A2780/CP70 cells suspended in 200 μL PBS (PH 7.4). Seven days later when the tumor reached a size of greater than 150 mm^3, the mice were randomly divided into 4 groups (8 mice per group) as follows: (1) PBS-treated control; (2) BMS-833923 alone (100 mg/kg, i.p. daily, two weeks); (3) Carboplatin alone (40 mg/kg, i.p. twice a week, two weeks); (4) Combination of BMS-833923 and Carboplatin treatment. Mice were weighed and tumor diameters were measured with calipers every 2-3 days for 20 days. The tumor volumes (mm^3) were calculated as (W^2×L)/2, where W and L are the minor and major diameters (in millimeters), respectively.
(§2) Xenograft experiments were performed as described above. Carboplatin was dosed days 7, 11, 14, 18; BMS-833923 was dosed days 8 through 20. The experiment was terminated due to excessive tumor size in vehicle and BMS-833923 treatment groups.

CP2780 xenografts = experiment: Xenograft tumor growth, carboplatin-resistant model; type: in vivo; settings: SCID mice; BMS-833923 100 mg/kg i.p. daily, Carboplatin 40 mg/kg i.p. twice a week, two weeks
Description: as §1, §2
The CP2780 was derived from the A2780 Ovarian tumor xenograft model by selection for resistance to cisplatin. The CP2780 growth appeared to be more robust than observed for parental A2780 model (FIG. 12B). Average tumor volume doubling time for CP2780 was estimated at 2 days. Doubling time for parental A2780 tumor model was estimated at 3 days. […]

[1] = MTD for combination therapy; type: in vivo; settings: in vivo; BMS-833923 + carboplatin given together; previously demonstrated
Excerpt: Treatment with BMS-833923 appeared to have little effect on the growth of A2780 xenografts in vivo.

SKOV3 cells = experiment: MTS IC50 dosage calculation with BMS-833923; type: cell-based; settings: Homo sapiens, SK-OV-3; SKOV3 monolayer, MTS up to 72 hrs
Description: (§3) Ovarian cancer cells were seeded at a density of 4,000 cells/well in 96 well plates. The following day, fresh medium was added to each well and they were treated with BMS-833923 at a dose-escalation at the following doses 0, 0.1, 0.25, 0.5, 1, 2, 5, 10, and 20 μM. These cells were kept at 37° C. in a humidified 5% CO2 atmosphere. Every 24 hours, 20 μl/well of MTS reagent were added in 96 well plates and stored in 37° C. incubator for at least 3 hours followed by absorbance reading at 490 nm. The assay was carried out up to 72 hrs to obtain the IC50 concentrations of each agent.
(§4) IC50 dosage determinations were performed as described above. […] BMS-833923 IC50 doses were used for all related experiments for specific ovarian cancer cell lines.

ES2 cells = experiment: MTS IC50 dosage calculation with BMS-833923; type: cell-based; settings: Homo sapiens, ES-2; ES2 monolayer, MTS up to 72 hrs
Description: as §3, §4

OV90 cells = experiment: MTS IC50 dosage calculation with BMS-833923; type: cell-based; settings: Homo sapiens, OV-90; OV90 monolayer, MTS up to 72 hrs
Description: as §3, §4

TOV112D cells = experiment: MTS IC50 dosage calculation with BMS-833923; type: cell-based; settings: Homo sapiens; TOV112D monolayer, MTS up to 72 hrs
Description: as §3, §4

SKOV3 OCSC (CD44+/CD24-) = experiment: Matrigel invasion assay of CD44+/CD24- ovarian cancer stem cells; type: cell-based; settings: 2.5 μM, 24 hours
Description: (§5) Fluorescence-activated cell sorting (FACS) was performed in order to sort into 2 distinct phenotypes: 1) ovarian cancer stem cell phenotype (OCSC=CD44+/CD24−) and 2) non-ovarian cancer stem cells (non-OCSC=all other phenotypes). Each ovarian cancer phenotype was evaluated for invasion properties using the Matrigel invasion assay for the SKOV3 and OV90 cell lines. Matrigel™-coated chamber (BD Pharmingen) were rehydrated for 2 hours in humidified tissue culture incubator at 37° C., 5% CO2. After rehydration, the medium was carefully removed without disturbing the layer of Matrigel Matrix on the membrane. The cell suspension was prepared in serum-free medium containing 10^5 cells/mL. The lower chambers of the 24-well plate were filled with 750 μL serum-free medium containing 10 μg/mL fibronectin as a chemotactic factor. […] The cells were then fixed, stained and counted. Numbers of invaded cells at least 10 consecutive fields were enumerated and their average was calculated. Data are expressed as the number of migrating cells per field. Three groups were evaluated: 1) non-OCSC; 2) OCSC; 3) OCSC plus BMS833923 treatment.
(§6) One aggressive property of cancer includes the ability to invade tissues locally. Therefore, the ability of Ovarian Cancer Stem Cells (OCSC) with CD44+/CD24− phenotype to invade via Matrigel invasion assay was evaluated. […]

OV90 OCSC (CD44+/CD24-) = experiment: as above; type: cell-based; settings: 2.5 μM, 24 hours
Description: as §5, §6

For `CNCc1ccc(C)c(NC(=O)c2ccc(Nc3nc(-c4ccccc4)c4ccccc4n3)cc2)c1` [BMS-833923, N-{2-methyl-5-[(methylamino)methyl]phenyl}-4-[(4-phenylquinazolin-2-yl)amino]benzamide], the “effect on growth of A2780 xenografts in vivo” value (A2780 xenografts) was “little effect”, the “effect on growth of CP2780 (A2780/CP70) xenografts in vivo” value (CP2780 xenografts) was “little effect” and the MTD [1] was 100 mg/kg. It also gave an IC50 (SKOV3 cells) of 7.5 µM, an IC50 (ES2 cells) of 4 µM and an IC50 (OV90 cells) of 4 µM. For the same compound, the IC50 (TOV112D cells) was 5 µM, the “invasive properties of OCSC (number of cells invaded)” value (SKOV3 OCSC (CD44+/CD24-)) was “lower than non-OCSCs” and the “invasive properties of OCSC (number of cells invaded)” value (OV90 OCSC (CD44+/CD24-)) was “lower than non-OCSCs”.
